≈ marks a conversion by molar mass, not a printed value. Calls of active or inactive are those of the source. The calls are words filed in the database; no cut-off is given here.
Assays:
[1] = test system: A549/TR; assay: Antiproliferative activity against human A549/T cell assessed as cell growth inhibition incubated for 48 hrs by MTT assay; type: functional, cell-based
[2] = test system: A549; assay: Antiproliferative activity against human A549 cells assessed as cell growth inhibition incubated for 48 hrs by MTT assay; conditions: A549, 48 h
[3] = Resistance index, ratio of IC50 for human A549/T cells to IC50 for human A549 cells; type: functional
[4] = Metabolic stability in human liver microsome assessed as intrinsic clearance measured upto 50 mins by LC-MS/MS analysis; type: ADME; conditions: liver microsomes, read-out: CLH
[5] = Metabolic stability in mouse liver microsome assessed as intrinsic clearance measured upto 50 mins by LC-MS/MS analysis; type: ADME; conditions: liver microsomes, read-out: CLH
[6] = Metabolic stability in mouse liver microsome assessed as half life measured upto 50 mins by LC-MS/MS analysis; type: ADME; conditions: liver microsomes
[7] = Metabolic stability in human liver microsome assessed as half life measured upto 50 mins by LC-MS/MS analysis; type: ADME; conditions: liver microsomes
[8] = test system: A549/TR; assay: Antitumor activity against human A549/T cell xenografted in BALB/c mouse assessed as reduction in tumor growth at 15 mg/kg, ip administered every 2 days; type: functional, organism-based; conditions: time 2.0 day
[9] = Toxicity in BALB/c mouse implanted with human A549/T cell assessed as change in body weight at 15 mg/kg, ip administered every 2 days; type: organism-based; conditions: in vivo, 48 h, time 2 day
[10] = Inhibition of pig brain tubulin polymerization measured upto 20 mins by absorbance based assay; parameters: species or system Sus scrofa
[11] = Aqueous solubility of the compound […] at pH 7.4 by HPLC analysis; type: physicochemical
[12] = test system: A549/TR; assay: Antiproliferative activity against human A549/T cell assessed as cell growth inhibition in presence of verapamil incubated for 48 hrs by MTT assay; type: functional, cell-based
[13] = test system: A549/TR; assay: Antiproliferative activity against human A549/T cell assessed as cell growth inhibition at 80 nM incubated for 48 hrs by MTT assay; type: functional, cell-based
[14] = test system: A549; assay: Inhibition of colony formation in human A549 cells at 1 uM incubated for 48 hrs by crystal violet staining based analysis; type: functional, cell-based
[15] = test system: A549/TR; assay: Inhibition of colony formation in human A549/T cell at 1 uM incubated for 48 hrs by crystal violet staining based analysis; type: functional
[16] = target: Tubulin (Homo sapiens) (UniProt P68371+Q9H4B7+P0DPH7+P68366+Q13509+Q71U36+P04350+Q3ZCM7+P07437+P68363+Q9BQE3+Q6PEY2+Q13885+Q9BVA1+Q9BUF5); assay: Disruption of microtubule network in human A549/T cell assessed as disorganization of tubulin cytoskeleton at 1000 nM incubated for 24 hrs by immunofluorescence staining based confocal microscopy analysis

COc1ccc(-n2c(=O)[nH]c3cnc(-c4cc(OC)c(OC)c(OC)c4)cc32)cc1O
IC50 [1]: > 50000 nM

COc1ccc(-c2cc(-c3cc(OC)c(OC)c(OC)c3)c3[nH]c(=O)[nH]c3c2)cc1O
IC50 [2]: 290 nM
IC50 [1]: 470 nM
Ratio IC50 [3]: 1.62

COc1ccc(-c2cc(-c3cc(OC)c(OC)c(OC)c3)c3nc[nH]c3c2)cc1
IC50 [2]: 780 nM
IC50 [1]: 1510 nM
Ratio IC50 [3]: 1.94

O=C(c1ccc(F)cc1)C1CCN(CCn2c(=O)[nH]c3ccccc3c2=O)CC1 [KETANSERIN]
CLint scaled [4]: 47 mL/min/kg
CLint scaled [5]: 419 mL/min/kg
half-life [6]: 13 min
half-life [7]: 37 min

COc1ccc(-c2nc(Nc3cc(OC)c(OC)c(OC)c3)c3cccnc3n2)cc1F
IC50 [2]: 5360 nM
IC50 [1]: > 50000 nM
Ratio IC50 [3]: >9.43

COc1ccc(-c2cncc3[nH]c(=O)n(Cc4cc(OC)c(OC)c(OC)c4)c23)cc1O
IC50 [1]: > 50000 nM

COc1cc(-c2cc(-c3ccc(C)c(O)c3)cc3[nH]cnc23)cc(OC)c1OC
IC50 [2]: 190 nM
IC50 [1]: 890 nM
Ratio IC50 [3]: 4.68

COc1ccc(-c2nc3cnccc3n2-c2cc(OC)c(OC)c(OC)c2)cc1O
IC50 [1]: > 50000 nM

COc1ccc(-c2cc(-c3ccc(OC)c(N)c3)cc3[nH]cnc23)cc1
IC50 [2]: 11000 nM
IC50 [1]: 16600 nM
Ratio IC50 [3]: 1.5

COc1ccc(/C=C\c2cc(OC)c(OC)c(OC)c2)cc1O [COMBRETASTATIN A4]
Activity [8]: Active
Activity [9]: Non-toxic
IC50 [10]: 1400 nM
CLint scaled [4]: 90 mL/min/kg
IC50 [1]: 13 nM
half-life [7]: 14 min
solubility [11]: 1 µg/mL (≈ 3.16 µM)

COc1ccc(-c2cc(-c3ccccc3OC)c3nc[nH]c3c2)cc1N
IC50 [2]: 140 nM
IC50 [1]: 350 nM
Ratio IC50 [3]: 2.5

CC(=O)O[C@@]12CO[C@@H]1C[C@H](O)[C@@]1(C)C(=O)[C@H](O)C3=C(C)[C@@H](OC(=O)[C@H](O)[C@@H](NC(=O)OC(C)(C)C)c4ccccc4)C[C@@](O)([C@@H](OC(=O)c4ccccc4)[C@H]21)C3(C)C [DOCETAXEL ANHYDROUS]
IC50 [2]: 1 nM
IC50 [1]: 7840 nM
Ratio IC50 [3]: 7840
Activity [12]: Active

COc1ccc(-c2cc(-c3cc(OC)c(OC)c(OC)c3)c3nc[nH]c3c2)cc1F
IC50 [2]: 110 nM
IC50 [1]: 300 nM
Ratio IC50 [3]: 2.73

COc1cc(-c2cc(-c3ccc(C4CC4)cc3)cc3[nH]cnc23)cc(OC)c1OC
IC50 [2]: 4920 nM
IC50 [1]: 6760 nM
Ratio IC50 [3]: 1.34

COc1ccc2nc(-c3ccc(OC)c(F)c3)nc(Nc3cc(OC)c(OC)c(OC)c3)c2c1
IC50 [2]: 2040 nM
IC50 [1]: 8910 nM
Ratio IC50 [3]: 4.37

COc1ccc(-c2cc(-c3cc(OC)c(OC)c(OC)c3)c3nc(C)[nH]c3c2)cc1F
IC50 [2]: 5370 nM
IC50 [1]: 10200 nM
Ratio IC50 [3]: 1.9

COc1cc(-c2cc(-c3ccc(C)c(N)c3)cc3[nH]cnc23)cc(OC)c1OC
IC50 [2]: 240 nM
IC50 [1]: 500 nM
Ratio IC50 [3]: 2.08

COc1cc(-c2cc(Cl)cc3[nH]cnc23)cc(OC)c1OC
IC50 [2]: > 50000 nM
IC50 [1]: > 50000 nM

CCC1=C[C@@H]2CN(C1)Cc1c([nH]c3ccccc13)[C@@](C(=O)OC)(c1cc3c(cc1OC)N(C)[C@H]1[C@@](O)(C(=O)OC)[C@H](OC(C)=O)[C@]4(CC)C=CCN5CC[C@]31[C@@H]54)C2
Activity [12]: Active

CCOc1ccc(-c2cc(-c3cc(OC)c(OC)c(OC)c3)c3nc[nH]c3c2)cc1
IC50 [2]: 1030 nM
IC50 [1]: 2950 nM
Ratio IC50 [3]: 2.86

COc1ccc(-c2cc(-c3cc(OC)c(OC)c(OC)c3)c3nc(C)[nH]c3c2)cc1O
IC50 [2]: 530 nM
IC50 [1]: 1900 nM
Ratio IC50 [3]: 3.58

COc1ccc(-c2nc(Nc3cc(OC)c(OC)c(OC)c3)c3ncn(C)c3n2)cc1F
IC50 [2]: 1210 nM
IC50 [1]: 3910 nM
Ratio IC50 [3]: 3.23

COc1ccc(-c2cc3c([nH]c(=O)n3-c3cc(OC)c(OC)c(OC)c3)c(C(N)=O)n2)cc1O
IC50 [1]: 33800 nM

COc1ccc(-c2cc(Oc3cc(OC)c(OC)c(OC)c3)c3nc[nH]c3c2)cc1F
IC50 [2]: 5130 nM
IC50 [1]: 10200 nM
Ratio IC50 [3]: 1.99

COc1ccc(-c2cc3[nH]c(=O)[nH]c3c(Oc3cc(OC)c(OC)c(OC)c3)n2)cc1F
IC50 [1]: 22100 nM

COc1ccc(-c2cc(-c3cc(OC)c(OC)c(OC)c3)c3nc[nH]c3c2)cc1O
IC50 [2]: 59 nM
IC50 [1]: 240 nM
Ratio IC50 [3]: 4.06

COc1ccc(-c2nc3c(c(Nc4cc(OC)c(OC)c(OC)c4)n2)CCCC3)cc1F
IC50 [2]: 10400 nM
IC50 [1]: 11700 nM
Ratio IC50 [3]: 1.12

COc1ccc(-c2cncc3[nH]c(=O)n(-c4cc(OC)c(OC)c(OC)c4)c23)cc1F
IC50 [1]: > 50000 nM

COc1cc(-c2cc(-c3ccc(C)cc3)cc3[nH]cnc23)cc(OC)c1OC
IC50 [2]: 680 nM
IC50 [1]: 970 nM
Ratio IC50 [3]: 1.42

COc1ccc(-c2cncc3[nH]c(=O)n(-c4cc(OC)c(OC)c(OC)c4)c23)cc1O
IC50 [1]: > 50000 nM

COc1cc(-c2cc(C)cc3[nH]cnc23)cc(OC)c1OC
IC50 [2]: > 50000 nM
IC50 [1]: > 50000 nM

COc1ccc(Nc2nc(Nc3cc(OC)c(OC)c(OC)c3)c3ccccc3n2)cc1F
IC50 [2]: 2770 nM
IC50 [1]: 11000 nM
Ratio IC50 [3]: 3.96

COc1cc(-c2cc(-c3ccc(C)c(F)c3)cc3[nH]cnc23)cc(OC)c1OC
IC50 [2]: 110 nM
IC50 [1]: 380 nM
Ratio IC50 [3]: 3.45

COc1ccc(-c2cc(-c3cc(OC)c(OC)c(OC)c3)c3cc[nH]c3c2)cc1F
IC50 [2]: 4820 nM
IC50 [1]: 15800 nM
Ratio IC50 [3]: 3.29

COc1ccc(-c2nc(Nc3cc(OC)c(OC)c(OC)c3)c3ccccc3n2)cc1F
IC50 [2]: 10300 nM
IC50 [1]: > 50000 nM
Ratio IC50 [3]: >4.84

COc1ccc(CCN(C)CCCC(C#N)(c2ccc(OC)c(OC)c2)C(C)C)cc1OC (centres undefined)
Activity [1]: inactive
Activity [13]: Active

CC[C@]1(O)C[C@H]2CN(CCc3c([nH]c4ccccc34)[C@@](C(=O)OC)(c3cc4c(cc3OC)N(C=O)[C@H]3[C@@](O)(C(=O)OC)[C@H](OC(C)=O)[C@]5(CC)C=CCN6CC[C@]43[C@@H]65)C2)C1 [VINCRISTINE]
IC50 [2]: 21 nM
IC50 [1]: 4350 nM
Ratio IC50 [3]: 207

COc1ccc(-c2cc(Oc3cc(OC)c(OC)c(OC)c3)c3ncn(C)c3c2)cc1F
IC50 [2]: 200 nM
IC50 [1]: 410 nM
Ratio IC50 [3]: 2.05

COc1ccc(-c2cc(-c3cc(OC)c(OC)c(OC)c3)c3nc[nH]c3c2)cc1N
IC50 [2]: 33 nM
IC50 [1]: 160 nM
Ratio IC50 [3]: 4.84

CC(=O)O[C@H]1C(=O)[C@@]2(C)[C@H]([C@H](OC(=O)c3ccccc3)[C@]3(O)C[C@H](OC(=O)[C@H](O)[C@@H](NC(=O)c4ccccc4)c4ccccc4)C(C)=C1C3(C)C)[C@]1(OC(C)=O)CO[C@@H]1C[C@@H]2O [PACLITAXEL]
Activity [8]: inactive
IC50 [2]: 2 nM
Activity [9]: Non-toxic
inhibition [14]: Active
IC50 [1]: > 50000 nM
inhibition [15]: inactive
Activity [16]: Active
Ratio IC50 [3]: >25000
Activity [12]: Active

COc1ccc(-c2nc(N(C)c3cc(OC)c(OC)c(OC)c3)c3ncn(C)c3n2)cc1F
IC50 [2]: 9910 nM
IC50 [1]: 16600 nM
Ratio IC50 [3]: 1.67

COc1ccc(-c2nc3c(c(Nc4cc(OC)c(OC)c(OC)c4)n2)CCC3)cc1F
IC50 [2]: 23000 nM
IC50 [1]: 35500 nM
Ratio IC50 [3]: 1.54

COc1ccc(-c2cc(-c3cc(OC)c(OC)c(OC)c3)c3nc[nH]c3c2)cn1
IC50 [2]: 290 nM
IC50 [1]: 390 nM
Ratio IC50 [3]: 1.34

COc1cc(-c2cccc3[nH]cnc23)cc(OC)c1OC
IC50 [2]: > 50000 nM
IC50 [1]: > 50000 nM

COc1cc(-c2cc(-c3ccc(Cl)c(N)c3)cc3[nH]cnc23)cc(OC)c1OC
IC50 [2]: 410 nM
IC50 [1]: 910 nM
Ratio IC50 [3]: 2.21

COc1cc(-c2cc(Br)cc3[nH]cnc23)cc(OC)c1OC
IC50 [2]: 28900 nM
IC50 [1]: 37100 nM
Ratio IC50 [3]: 1.28

COc1ccc(-c2nc3c(c(Nc4cc(OC)c(OC)c(OC)c4)n2)SCC3)cc1F
IC50 [2]: > 50000 nM
IC50 [1]: > 50000 nM

COc1cc2c(c(OC)c1OC)-c1ccc(OC)c(=O)cc1[C@@H](NC(C)=O)CC2 [COLCHICINE]
IC50 [2]: 22 nM
IC50 [1]: 280 nM
Ratio IC50 [3]: 12
Activity [12]: Active

COc1ccc(-c2cc(-c3cc(OC)c(OC)c(OC)c3)c3nc[nH]c3c2)cc1CO
IC50 [2]: 470 nM
IC50 [1]: 1580 nM
Ratio IC50 [3]: 3.36

COc1ccc(-c2cc(-c3cc(OC)c(OC)c(OC)c3)c3[nH]c(=O)[nH]c3c2)cc1F
IC50 [2]: 1270 nM
IC50 [1]: 3020 nM
Ratio IC50 [3]: 2.37

COc1ccc(-c2nc(Nc3cc(OC)c(OC)c(OC)c3)c3cc(OC)c(OC)cc3n2)cc1F
IC50 [2]: > 50000 nM
IC50 [1]: > 50000 nM

Reference: ChEMBL document CHEMBL6074685, “Design, synthesis and biological evaluation of novel diaryl-substituted fused nitrogen heterocycles as tubulin polymerization inhibitors to overcome multidrug resistance in vitro and in vivo” (Eur J Med Chem, 2025)
